In ChEMBL document CHEMBL1909046, “DrugMatrix in vitro pharmacology data”:

How the values were obtained:
[1] = DRUGMATRIX: Glutamate, AMPA radioligand binding (ligand: [3H] AMPA); format: cell membranes, Rattus norvegicus, Wistar, Cerebral cortex, Membrane; conditions: Not Active = under 50% inhibition at 10 µM
[2] = DRUGMATRIX: Leukotriene, BLT (LTB4) radioligand binding (ligand: [3H]LTB4); format: cell membranes, Membrane; conditions: u-937; Not Active = under 50% inhibition at 10 µM
[3] = biological target: T1, Muscarinic acetylcholine receptor M4 (Homo sapiens, UniProt P08173); format: cell membranes, CHO-K1, Membrane; conditions: cho-k1; further: in other assays of this panel Not Active means under 50% inhibition at 10 µM
T1 sequence (P08173 whole entry): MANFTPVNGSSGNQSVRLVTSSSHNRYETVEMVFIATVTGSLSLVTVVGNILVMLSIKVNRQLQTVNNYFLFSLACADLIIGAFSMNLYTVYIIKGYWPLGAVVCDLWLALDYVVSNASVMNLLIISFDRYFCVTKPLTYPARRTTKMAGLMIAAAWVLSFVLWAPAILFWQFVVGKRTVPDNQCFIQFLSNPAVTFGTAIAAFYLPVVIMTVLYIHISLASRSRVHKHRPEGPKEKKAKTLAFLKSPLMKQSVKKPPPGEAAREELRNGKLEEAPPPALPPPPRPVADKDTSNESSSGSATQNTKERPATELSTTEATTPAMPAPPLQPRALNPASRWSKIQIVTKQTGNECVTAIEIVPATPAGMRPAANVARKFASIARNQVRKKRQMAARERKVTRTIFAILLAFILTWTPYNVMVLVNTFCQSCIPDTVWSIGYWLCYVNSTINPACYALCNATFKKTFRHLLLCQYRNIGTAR

Androgen receptor = biological target: T2, Androgen receptor (Rattus norvegicus, UniProt P15207); further: in other assays of this panel Not Active means under 50% inhibition at 10 µM
T2 sequence (P15207 whole entry): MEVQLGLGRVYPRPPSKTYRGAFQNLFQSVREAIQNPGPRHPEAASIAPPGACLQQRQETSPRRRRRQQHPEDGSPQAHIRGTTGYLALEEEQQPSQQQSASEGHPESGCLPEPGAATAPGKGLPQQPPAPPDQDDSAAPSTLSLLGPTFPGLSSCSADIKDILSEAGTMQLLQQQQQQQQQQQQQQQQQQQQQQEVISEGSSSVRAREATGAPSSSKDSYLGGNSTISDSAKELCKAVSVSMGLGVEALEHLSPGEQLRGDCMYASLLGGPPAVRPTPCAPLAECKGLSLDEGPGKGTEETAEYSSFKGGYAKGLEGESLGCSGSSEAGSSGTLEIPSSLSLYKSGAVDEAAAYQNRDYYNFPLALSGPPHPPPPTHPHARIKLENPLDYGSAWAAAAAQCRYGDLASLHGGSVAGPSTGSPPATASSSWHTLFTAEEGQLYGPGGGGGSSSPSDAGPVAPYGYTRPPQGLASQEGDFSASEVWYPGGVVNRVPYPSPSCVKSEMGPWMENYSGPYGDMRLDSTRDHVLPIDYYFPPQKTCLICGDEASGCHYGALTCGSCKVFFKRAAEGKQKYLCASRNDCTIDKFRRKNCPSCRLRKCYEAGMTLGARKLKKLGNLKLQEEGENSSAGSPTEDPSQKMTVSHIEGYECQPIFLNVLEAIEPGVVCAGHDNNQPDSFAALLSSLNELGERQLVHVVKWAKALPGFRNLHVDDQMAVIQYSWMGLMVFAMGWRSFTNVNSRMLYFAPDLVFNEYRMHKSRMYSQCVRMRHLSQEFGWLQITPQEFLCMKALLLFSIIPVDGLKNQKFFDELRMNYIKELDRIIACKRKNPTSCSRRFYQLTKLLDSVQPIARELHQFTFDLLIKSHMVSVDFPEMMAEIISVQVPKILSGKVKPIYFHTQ

Glucocorticoid receptor = biological target: T3, Glucocorticoid receptor (Homo sapiens, UniProt P04150); assay: biochemical; further: in other assays of this panel Not Active means under 50% inhibition at 10 µM
T3 sequence (P04150 whole entry): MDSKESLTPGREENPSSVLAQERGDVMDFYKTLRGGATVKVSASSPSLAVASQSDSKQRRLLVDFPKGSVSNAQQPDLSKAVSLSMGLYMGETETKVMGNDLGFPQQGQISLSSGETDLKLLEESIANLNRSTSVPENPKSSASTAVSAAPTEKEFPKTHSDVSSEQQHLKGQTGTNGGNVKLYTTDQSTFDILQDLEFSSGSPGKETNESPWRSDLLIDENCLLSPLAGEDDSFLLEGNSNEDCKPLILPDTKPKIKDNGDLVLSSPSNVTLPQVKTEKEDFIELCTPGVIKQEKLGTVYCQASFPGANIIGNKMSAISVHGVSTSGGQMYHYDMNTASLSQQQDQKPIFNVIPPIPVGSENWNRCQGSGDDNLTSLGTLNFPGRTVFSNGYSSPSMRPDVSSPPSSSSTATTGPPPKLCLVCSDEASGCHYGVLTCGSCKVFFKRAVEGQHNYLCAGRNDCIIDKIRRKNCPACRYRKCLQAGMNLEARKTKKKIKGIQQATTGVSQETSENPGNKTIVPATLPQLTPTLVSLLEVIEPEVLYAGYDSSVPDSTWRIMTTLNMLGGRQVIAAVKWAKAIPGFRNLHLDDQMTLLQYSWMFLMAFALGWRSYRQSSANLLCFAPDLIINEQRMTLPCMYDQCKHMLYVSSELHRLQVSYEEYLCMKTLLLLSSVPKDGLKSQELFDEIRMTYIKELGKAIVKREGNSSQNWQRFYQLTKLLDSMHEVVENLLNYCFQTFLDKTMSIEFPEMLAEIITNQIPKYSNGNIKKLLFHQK

Molecule | IC50 [1] | Ki [1] | IC50 [2] | Ki [2] | IC50 [3] | IC50 (Androgen receptor) | Ki (Androgen receptor) | Ki [3] | IC50 (Glucocorticoid receptor) | Ki (Glucocorticoid receptor)
CCS(=O)(=O)CCn1c([N+](=O)[O-])cnc1C [TINIDAZOLE] | Not Active | Not Active | Not Active | Not Active | Not Active | – | – | – | – | –
Nc1nc2c(c(=O)[nH]1)N(C=O)C(CNc1ccc(C(=O)N[C@@H](CCC(=O)O)C(=O)O)cc1)CN2 (stereo not given in full) [LEUCOVORIN] | Not Active | Not Active | Not Active | Not Active | Not Active | Not Active | – | – | – | –
CC(=O)O[C@H]1C[C@@H]2CC[C@@H]3[C@H](CC[C@@]4(C)[C@H]3C[C@H]([N+]3(C)CCCCC3)[C@@H]4OC(C)=O)[C@@]2(C)C[C@@H]1N1CCCCC1.[Br-] [VECURONIUM BROMIDE] | Not Active | Not Active | Not Active | Not Active | Not Active | – | – | – | – | –
C[C@@H](O)[C@H]1C(=O)N2C(C(=O)O)=C(S[C@@H]3CN[C@H](C(=O)N(C)C)C3)[C@H](C)[C@H]12 [MEROPENEM] | Not Active | Not Active | Not Active | Not Active | Not Active | – | – | – | – | –
Cc1cn([C@H]2C[C@H](N=[N+]=[N-])[C@@H](CO)O2)c(=O)[nH]c1=O [ZIDOVUDINE] | Not Active | Not Active | Not Active | Not Active | Not Active | – | – | – | – | –
CN1C2CCCC1CC(NC(=O)c1nn(C)c3ccccc13)C2 (stereo not given) [GRANISETRON] | – | – | – | – | Not Active | – | – | – | – | –
THIMEROSAL | Not Active | Not Active | Not Active | Not Active | Not Active | Not Active | Not Active | Not Active | – | –
C[C@]12CC[C@H]3[C@@H](CCC4=CC(=O)CC[C@@]43C)[C@@H]1CC[C@@H]2O [TESTOSTERONE] | Not Active | Not Active | Not Active | Not Active | Not Active | – | – | – | 3210 nM | 1460 nM
CNS(=O)(=O)Cc1ccc2[nH]cc(CCN(C)C)c2c1 | Not Active | Not Active | Not Active | Not Active | Not Active | – | – | – | – | –
CC(C)OC(=O)C(C)(C)Oc1ccc(C(=O)c2ccc(Cl)cc2)cc1 [FENOFIBRATE] | – | – | – | – | Not Active | Not Active | – | – | – | –
CN(CCOc1ccc(CC2SC(=O)NC2=O)cc1)c1ccccn1 (stereo not given) [ROSIGLITAZONE] | Not Active | Not Active | Not Active | Not Active | Not Active | – | – | – | – | –
Nc1ccc(S(=O)(=O)Nc2nccs2)cc1 [SULFATHIAZOLE] | Not Active | Not Active | Not Active | Not Active | Not Active | – | – | – | – | –
COc1ccc(CN2CCNCC2)c(OC)c1OC [TRIMETAZIDINE] | Not Active | Not Active | Not Active | Not Active | Not Active | – | – | – | – | –
CC[C@@H](CO)NC(=O)[C@@H]1C=C2c3cccc4c3c(cn4C)C[C@H]2N(C)C1 [METHYSERGIDE] | – | – | – | – | Not Active | – | – | – | – | –
CCCc1nn(C)c2c(=O)[nH]c(-c3cc(S(=O)(=O)N4CCN(C)CC4)ccc3OCC)nc12 | Not Active | Not Active | Not Active | Not Active | Not Active | – | – | – | – | –
CN[C@@H]1[C@H](O)[C@H](NC)[C@H]2O[C@@]3(O)C(=O)C[C@@H](C)O[C@H]3O[C@@H]2[C@H]1O [SPECTINOMYCIN] | Not Active | Not Active | Not Active | Not Active | Not Active | Not Active | – | – | – | –

Molecule | IC50 [1] | Ki [1] | IC50 [2] | Ki [2] | IC50 [3] | IC50 (Androgen receptor) | Ki (Androgen receptor) | Ki [3] | IC50 (Glucocorticoid receptor) | Ki (Glucocorticoid receptor)
CC(=O)Nc1nnc(S(N)(=O)=O)s1 [ACETAZOLAMIDE] | – | – | – | – | Not Active | – | – | – | – | –
CC(C)(C)NC[C@H](O)COc1nsnc1N1CCOCC1 [TIMOLOL] | Not Active | Not Active | Not Active | Not Active | Not Active | – | – | – | – | –
O=P(O)(O)C(O)(Cc1cccnc1)P(=O)(O)O [RISEDRONIC ACID] | Not Active | Not Active | Not Active | Not Active | Not Active | – | – | – | – | –
COc1ccc(/C=C/C(=O)Nc2ccccc2C(=O)O)cc1OC | Not Active | Not Active | Not Active | Not Active | Not Active | Not Active | – | – | – | –
O=c1[nH]c2ccccc2n1CCCN1CCC(n2c(=O)[nH]c3cc(Cl)ccc32)CC1 [DOMPERIDONE] | – | – | – | – | Not Active | – | – | – | – | –
O=c1n(CCCN2CCN(c3cccc(Cl)c3)CC2)nc2ccccn12 [TRAZODONE] | – | – | – | – | Not Active | – | – | – | – | –
CCOC(N)=O | Not Active | Not Active | Not Active | Not Active | Not Active | – | – | – | – | –
C#CCN(C)[C@H](C)Cc1ccccc1 [SELEGILINE] | Not Active | Not Active | Not Active | Not Active | Not Active | – | – | – | – | –
Nc1ccc(S(=O)(=O)Nc2ncccn2)cc1 [SULFADIAZINE] | Not Active | Not Active | Not Active | Not Active | Not Active | – | – | – | – | –
C[C@@H]1C[C@H]2[C@@H]3CCC4=CC(=O)C=C[C@]4(C)C3=CC[C@]2(C)[C@H]1C(=O)CN1CCN(c2cc(N3CCCC3)nc(N3CCCC3)n2)CC1 [TIRILAZAD] | Not Active | Not Active | Not Active | Not Active | Not Active | Not Active | – | – | – | –
COc1ncnc(NS(=O)(=O)c2ccc(N)cc2)c1OC [SULFADOXINE] | Not Active | Not Active | Not Active | Not Active | Not Active | – | – | – | – | –
STANNOUS FLUORIDE | Not Active | Not Active | Not Active | Not Active | Not Active | Not Active | Not Active | Not Active | – | –
CC1=C(CC(=O)O)c2cc(F)ccc2/C1=C\c1ccc(S(C)(=O)=O)cc1 [EXISULIND] | Not Active | Not Active | Not Active | Not Active | Not Active | Not Active | – | – | – | –
NC[C@H]1O[C@H](O[C@H]2[C@H](O)[C@@H](O[C@H]3O[C@H](CO)[C@@H](O)[C@H](N)[C@H]3O)[C@H](N)C[C@@H]2N)[C@H](N)C[C@@H]1O [TOBRAMYCIN] | Not Active | Not Active | Not Active | Not Active | Not Active | – | – | – | – | –
O=C(O)C(Cl)(Cl)Cl [TRICHLOROACETIC ACID] | Not Active | Not Active | Not Active | Not Active | Not Active | – | – | – | – | –
